Assays:
[1] = target: Mitogen-activated protein kinase 3 (Homo sapiens) (UniProt P27361); experiment: Inhibition of human full length ERK1 expressed in Escherichia coli cell assessed as substrate phosphorylation using fluorescence-labelled peptides as substrate at 0.2 uM after 90 mins by microfluidic peptide phosphorylation assay
Homo sapiens = species on record: Homo sapiens; conditions: 0.1 uM
Description: Inhibition of human P70S6K catalytic domain expressed in baculovirus assessed as substrate phosphorylation using fluorescence-labelled peptides as substrate at 0.1 uM after 90 mins by microfluidic peptide phosphorylation assay

[2] = target: T1, Serine/threonine-protein kinase Sgk3 (Homo sapiens) (UniProt Q96BR1); conditions: 0.1 uM
T1 sequence (whole entry): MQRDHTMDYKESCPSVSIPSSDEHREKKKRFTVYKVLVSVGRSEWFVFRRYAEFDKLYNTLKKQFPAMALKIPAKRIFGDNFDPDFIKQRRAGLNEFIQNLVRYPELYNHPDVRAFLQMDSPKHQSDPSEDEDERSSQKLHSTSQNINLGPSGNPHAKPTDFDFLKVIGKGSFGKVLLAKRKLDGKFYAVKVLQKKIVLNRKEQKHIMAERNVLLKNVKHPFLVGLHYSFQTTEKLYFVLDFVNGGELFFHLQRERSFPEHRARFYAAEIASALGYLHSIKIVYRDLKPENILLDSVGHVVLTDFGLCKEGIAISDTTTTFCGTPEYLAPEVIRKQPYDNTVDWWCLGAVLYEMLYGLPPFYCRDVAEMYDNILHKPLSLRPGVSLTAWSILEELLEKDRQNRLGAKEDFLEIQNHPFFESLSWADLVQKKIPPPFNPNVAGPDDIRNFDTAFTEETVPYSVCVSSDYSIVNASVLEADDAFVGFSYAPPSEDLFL
Description: Inhibition of human full length SGK3 expressed in baculovirus assessed as substrate phosphorylation using fluorescence-labelled peptides as substrate at 0.1 uM after 90 mins by microfluidic peptide phosphorylation assay

[3] = target: T2, Serine/threonine-protein kinase D2 (Homo sapiens) (UniProt Q9BZL6); conditions: 0.1 uM
T2 sequence (whole entry): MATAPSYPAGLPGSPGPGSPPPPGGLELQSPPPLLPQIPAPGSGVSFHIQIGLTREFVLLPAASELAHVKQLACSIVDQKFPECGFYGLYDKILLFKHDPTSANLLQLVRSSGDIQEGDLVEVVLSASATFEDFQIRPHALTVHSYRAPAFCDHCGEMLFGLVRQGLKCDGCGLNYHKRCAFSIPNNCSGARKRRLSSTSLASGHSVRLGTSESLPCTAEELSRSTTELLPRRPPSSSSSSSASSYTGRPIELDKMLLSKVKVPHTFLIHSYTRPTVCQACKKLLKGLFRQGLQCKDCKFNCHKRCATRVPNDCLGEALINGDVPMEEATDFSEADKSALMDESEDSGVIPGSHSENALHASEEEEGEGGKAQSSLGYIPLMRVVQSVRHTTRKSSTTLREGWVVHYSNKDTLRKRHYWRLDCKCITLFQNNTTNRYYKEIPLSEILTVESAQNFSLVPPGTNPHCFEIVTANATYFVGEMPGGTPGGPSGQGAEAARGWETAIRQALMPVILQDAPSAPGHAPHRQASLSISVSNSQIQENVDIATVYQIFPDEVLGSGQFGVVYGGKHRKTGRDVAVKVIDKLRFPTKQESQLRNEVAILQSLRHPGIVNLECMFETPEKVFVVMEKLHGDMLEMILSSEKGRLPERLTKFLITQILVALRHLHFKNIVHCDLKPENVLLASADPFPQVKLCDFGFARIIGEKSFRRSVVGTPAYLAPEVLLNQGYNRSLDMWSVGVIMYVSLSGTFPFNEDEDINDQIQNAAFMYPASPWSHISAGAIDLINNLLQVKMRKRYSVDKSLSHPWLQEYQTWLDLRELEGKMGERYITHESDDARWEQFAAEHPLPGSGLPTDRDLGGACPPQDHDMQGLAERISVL
Description: Inhibition of human full length PKD2 expressed in baculovirus assessed as substrate phosphorylation using fluorescence-labelled peptides as substrate at 0.1 uM after 90 mins by microfluidic peptide phosphorylation assay

[4] = target: Proto-oncogene tyrosine-protein kinase Src (Homo sapiens) (UniProt P12931); experiment: Inhibition of human full length SRC expressed in baculovirus assessed as substrate phosphorylation using fluorescence-labelled peptides as substrate at 95 uM after 90 mins by microfluidic peptide phosphorylation assay
Chain of Proto-oncogene tyrosine-protein kinase Src (Homo sapiens) (P12931 2-536 limits assumed): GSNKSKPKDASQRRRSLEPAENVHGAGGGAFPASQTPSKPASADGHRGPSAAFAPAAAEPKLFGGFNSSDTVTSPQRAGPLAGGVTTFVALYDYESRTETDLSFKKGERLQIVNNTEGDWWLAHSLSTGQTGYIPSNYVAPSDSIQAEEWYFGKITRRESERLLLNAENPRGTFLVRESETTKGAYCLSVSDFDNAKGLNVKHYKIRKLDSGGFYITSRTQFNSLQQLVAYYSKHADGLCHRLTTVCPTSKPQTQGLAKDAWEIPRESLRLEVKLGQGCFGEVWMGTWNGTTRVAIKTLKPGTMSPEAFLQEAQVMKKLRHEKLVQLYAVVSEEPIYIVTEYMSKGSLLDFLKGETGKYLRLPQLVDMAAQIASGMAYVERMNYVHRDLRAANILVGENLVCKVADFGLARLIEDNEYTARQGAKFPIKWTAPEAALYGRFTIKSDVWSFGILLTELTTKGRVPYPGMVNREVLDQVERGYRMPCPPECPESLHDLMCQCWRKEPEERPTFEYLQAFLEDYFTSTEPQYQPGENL

[5] = target: Tyrosine-protein kinase Lck (Homo sapiens) (UniProt P06239); experiment: Inhibition of human full length LCK expressed in baculovirus assessed as substrate phosphorylation using fluorescence-labelled peptides as substrate at […] after 90 mins by microfluidic peptide phosphorylation assay
Chain of Tyrosine-protein kinase Lck (Homo sapiens) (P06239 2-509 limits assumed): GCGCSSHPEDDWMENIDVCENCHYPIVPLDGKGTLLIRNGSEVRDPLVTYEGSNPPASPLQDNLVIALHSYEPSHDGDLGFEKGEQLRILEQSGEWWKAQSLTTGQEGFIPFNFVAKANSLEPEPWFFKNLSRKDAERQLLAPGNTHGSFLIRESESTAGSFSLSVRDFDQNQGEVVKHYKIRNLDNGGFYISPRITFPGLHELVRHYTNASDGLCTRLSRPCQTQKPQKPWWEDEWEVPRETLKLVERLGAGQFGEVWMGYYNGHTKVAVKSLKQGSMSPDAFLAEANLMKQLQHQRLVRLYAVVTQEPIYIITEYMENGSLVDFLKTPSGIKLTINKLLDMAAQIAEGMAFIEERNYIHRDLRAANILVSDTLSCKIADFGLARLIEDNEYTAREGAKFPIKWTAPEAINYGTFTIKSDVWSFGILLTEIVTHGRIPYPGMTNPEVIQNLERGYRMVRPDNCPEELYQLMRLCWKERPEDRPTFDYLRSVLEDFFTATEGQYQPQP

[6] = target: T3, Serine/threonine-protein kinase D1 (Homo sapiens) (UniProt Q15139); experiment: Inhibition of human full length PKD1 expressed in baculovirus assessed as substrate phosphorylation using fluorescence-labelled peptides as substrate at 70 uM after 90 mins by microfluidic peptide phosphorylation assay
T3 sequence (whole entry): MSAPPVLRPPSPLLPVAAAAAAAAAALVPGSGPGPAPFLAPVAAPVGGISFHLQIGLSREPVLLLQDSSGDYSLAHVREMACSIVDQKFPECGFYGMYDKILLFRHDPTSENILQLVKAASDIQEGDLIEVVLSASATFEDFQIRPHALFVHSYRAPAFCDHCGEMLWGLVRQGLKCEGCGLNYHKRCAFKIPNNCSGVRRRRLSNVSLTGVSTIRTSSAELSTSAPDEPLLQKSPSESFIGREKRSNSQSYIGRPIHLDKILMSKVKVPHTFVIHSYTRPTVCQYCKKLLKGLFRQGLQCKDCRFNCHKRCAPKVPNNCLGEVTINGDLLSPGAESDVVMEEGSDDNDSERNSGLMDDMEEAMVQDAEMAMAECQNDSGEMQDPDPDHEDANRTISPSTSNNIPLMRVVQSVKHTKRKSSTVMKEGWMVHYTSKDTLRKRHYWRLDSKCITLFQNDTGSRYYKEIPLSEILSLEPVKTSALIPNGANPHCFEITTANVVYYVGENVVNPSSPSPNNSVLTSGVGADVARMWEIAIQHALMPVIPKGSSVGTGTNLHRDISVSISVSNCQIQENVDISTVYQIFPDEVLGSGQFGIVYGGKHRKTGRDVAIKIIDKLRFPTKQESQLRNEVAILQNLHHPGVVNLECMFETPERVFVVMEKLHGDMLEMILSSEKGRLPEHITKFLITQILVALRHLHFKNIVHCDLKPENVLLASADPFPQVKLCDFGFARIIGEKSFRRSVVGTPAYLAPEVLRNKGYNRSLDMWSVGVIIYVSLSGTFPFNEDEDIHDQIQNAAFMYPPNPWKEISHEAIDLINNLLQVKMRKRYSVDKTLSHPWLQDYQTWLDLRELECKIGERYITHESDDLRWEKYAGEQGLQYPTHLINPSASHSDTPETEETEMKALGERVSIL

[7] = target: Serine/threonine-protein kinase Chk2 (Homo sapiens) (UniProt O96017); experiment: Inhibition of human full length CHK2 expressed in baculovirus assessed as substrate phosphorylation using fluorescence-labelled peptides as substrate at 70 uM after 90 mins by microfluidic peptide phosphorylation assay
Chain of Serine/threonine-protein kinase Chk2 (Homo sapiens) (O96017 whole entry, the tested form may be a part): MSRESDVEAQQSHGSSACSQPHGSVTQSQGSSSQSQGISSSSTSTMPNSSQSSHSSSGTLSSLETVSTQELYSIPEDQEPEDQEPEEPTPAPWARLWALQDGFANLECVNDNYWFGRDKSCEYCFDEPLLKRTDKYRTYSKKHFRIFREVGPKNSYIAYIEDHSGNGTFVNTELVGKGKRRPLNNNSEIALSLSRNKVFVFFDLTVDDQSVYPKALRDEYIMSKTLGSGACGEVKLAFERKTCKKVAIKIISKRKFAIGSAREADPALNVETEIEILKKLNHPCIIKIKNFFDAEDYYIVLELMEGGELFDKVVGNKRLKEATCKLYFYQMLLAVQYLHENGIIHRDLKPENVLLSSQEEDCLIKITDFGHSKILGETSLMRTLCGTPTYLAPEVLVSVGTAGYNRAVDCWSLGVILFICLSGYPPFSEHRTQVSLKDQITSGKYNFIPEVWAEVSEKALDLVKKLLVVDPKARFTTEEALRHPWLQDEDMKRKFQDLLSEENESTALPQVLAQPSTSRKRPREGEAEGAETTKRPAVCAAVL

[8] = target: Hepatocyte growth factor receptor (Homo sapiens) (UniProt P08581); experiment: Inhibition of human MET cytoplasmic domain expressed in baculovirus assessed as substrate phosphorylation using fluorescence-labelled peptides as substrate at 1000 uM after 90 mins by microfluidic peptide phosphorylation assay
Chain of Hepatocyte growth factor receptor (Homo sapiens) (P08581 whole entry, the tested form may be a part): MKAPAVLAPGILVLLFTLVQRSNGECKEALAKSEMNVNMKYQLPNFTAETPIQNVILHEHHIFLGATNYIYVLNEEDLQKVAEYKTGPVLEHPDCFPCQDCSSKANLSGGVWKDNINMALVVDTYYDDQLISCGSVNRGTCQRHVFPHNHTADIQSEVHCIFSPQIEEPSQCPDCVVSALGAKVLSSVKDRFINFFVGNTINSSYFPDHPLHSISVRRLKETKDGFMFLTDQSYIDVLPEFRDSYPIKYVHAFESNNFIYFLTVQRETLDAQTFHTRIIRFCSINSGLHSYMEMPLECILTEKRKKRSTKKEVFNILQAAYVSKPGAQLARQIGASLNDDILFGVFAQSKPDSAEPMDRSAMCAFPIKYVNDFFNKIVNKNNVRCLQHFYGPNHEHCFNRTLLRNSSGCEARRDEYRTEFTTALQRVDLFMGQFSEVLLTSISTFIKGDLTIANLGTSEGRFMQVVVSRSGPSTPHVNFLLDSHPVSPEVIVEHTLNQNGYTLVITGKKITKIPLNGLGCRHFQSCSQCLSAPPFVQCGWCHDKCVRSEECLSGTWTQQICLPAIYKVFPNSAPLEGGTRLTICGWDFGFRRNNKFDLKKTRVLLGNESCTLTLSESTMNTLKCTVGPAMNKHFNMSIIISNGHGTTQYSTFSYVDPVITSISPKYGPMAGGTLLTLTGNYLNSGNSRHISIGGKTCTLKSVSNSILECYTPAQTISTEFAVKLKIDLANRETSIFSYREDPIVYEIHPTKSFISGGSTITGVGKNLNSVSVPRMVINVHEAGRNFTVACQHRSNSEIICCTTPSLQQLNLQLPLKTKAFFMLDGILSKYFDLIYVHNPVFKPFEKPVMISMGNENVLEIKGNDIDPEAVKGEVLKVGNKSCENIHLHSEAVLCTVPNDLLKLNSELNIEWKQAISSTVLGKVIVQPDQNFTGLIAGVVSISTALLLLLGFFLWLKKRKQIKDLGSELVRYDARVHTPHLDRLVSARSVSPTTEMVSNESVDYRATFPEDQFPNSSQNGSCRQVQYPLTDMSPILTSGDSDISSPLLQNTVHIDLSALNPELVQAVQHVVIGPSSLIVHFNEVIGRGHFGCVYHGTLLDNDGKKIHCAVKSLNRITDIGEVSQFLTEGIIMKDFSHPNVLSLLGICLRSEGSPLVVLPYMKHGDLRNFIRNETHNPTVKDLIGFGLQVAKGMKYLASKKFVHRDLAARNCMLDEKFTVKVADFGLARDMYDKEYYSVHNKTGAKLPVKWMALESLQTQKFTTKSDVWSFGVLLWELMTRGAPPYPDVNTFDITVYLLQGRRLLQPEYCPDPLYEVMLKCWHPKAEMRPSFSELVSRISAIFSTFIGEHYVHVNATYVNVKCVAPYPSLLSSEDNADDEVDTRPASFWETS

Chain of Mitogen-activated protein kinase 3 (Homo sapiens) (P27361 whole entry): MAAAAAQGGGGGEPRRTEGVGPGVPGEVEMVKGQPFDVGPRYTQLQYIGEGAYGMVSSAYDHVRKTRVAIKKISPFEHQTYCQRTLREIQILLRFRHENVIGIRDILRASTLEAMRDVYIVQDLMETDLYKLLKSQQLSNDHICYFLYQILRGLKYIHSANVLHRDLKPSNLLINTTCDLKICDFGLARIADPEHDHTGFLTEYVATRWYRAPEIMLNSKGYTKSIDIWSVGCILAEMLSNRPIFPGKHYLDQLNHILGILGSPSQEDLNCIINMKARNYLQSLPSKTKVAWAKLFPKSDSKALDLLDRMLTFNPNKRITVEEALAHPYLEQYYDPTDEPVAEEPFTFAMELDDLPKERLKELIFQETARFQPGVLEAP

Structure (SMILES): Clc1ccc(C2(c3ccc(-c4ncnc5[nH]cnc45)cc3)CCNCC2)cc1
- inhibition [1]: 6%

Structure (SMILES): C[C@H](CN(C)C)Oc1nc(Nc2cc3cccc(Cl)c3cn2)cnc1C#N
- inhibition (Homo sapiens): 0%
- inhibition [2]: 0%
- inhibition [3]: 0%

Structure (SMILES): NCCc1ccc(-c2ncnc3[nH]cnc23)cc1
- inhibition [4]: 62%

Structure (SMILES): COC(=O)c1cnc(Nc2cnc(C#N)cn2)cc1NCC1CCNCC1
- inhibition [5]: 5.5%

Structure (SMILES): CNCc1ccc(-c2ncnc3[nH]cnc23)cc1
- inhibition [6]: 54.5%
- inhibition [7]: 57.5%

Structure (SMILES): c1cnc2[nH]ccc2c1
- inhibition [8]: 55%

— ChEMBL document CHEMBL3132769, “Fragment growing to retain or alter the selectivity of anchored kinase hinge-binding fragments” (Medchemcomm, 2014)
